Test results reported in US20160108049A1 (TAKEDA Gmbh, priority 2011, published 2016).

Assays:
[1] = target: T1, PDE4B1 (Homo sapiens, UniProt Q07343); test: Inhibition of PDE4 activity (PDE4B1, SPA assay); assay type: biochemical; details: recombinant PDE4B1, 0.5 μM cAMP; read-out: PDE4B1 Inhibitory values measured as -logIC50 (converted)
T1 construct: made in house; host or cells: SF21 insect cells (baculovirus; virus made in SF9 cells, pCR-Bac vector)
Protocol: Method for Measuring Inhibition of PDE4 Activity
The PDE4B1 (GB no. L20966) was a gift of Prof. M. Conti (Stanford University, USA). It was amplified from the original plasmid (pCMV5) via PCR with primers Rb18 (5′-[…]-3′) and Rb10 (5′-[…]-3′) and cloned into the pCR-Bac vector (Invitrogen, Groningen, NL).
The recombinant baculovirus was prepared by means of homologous recombination in SF9 insect cells. The expression plasmids were cotransfected with Baculo-Gold DNA (Pharmingen, Hamburg) using a standard protocol (Pharmingen, Hamburg). Wt virus-free recombinant virus supernatants were selected using plaque assay methods. After that, high-titre virus supernatants were prepared by amplifying 3 times. PDE4B1 was expressed in SF21 cells by infecting 2×10^6 cells/ml with an MOI (multiplicity of infection) between 1 and 10 in the serum-free SF900 medium (GIBCO Life Technologies, Karlsruhe, Germany) The cells were cultured at 28° C. for 48-72 hours, after which they were pelleted for 5-10 min at 1000×g and 4° C.
The SF21 insect cells were resuspended, at a concentration of approx. 10^7 cells/ml, in ice-cold (4° C.) homogenization buffer (20 mM Tris, pH 8.2, containing the following additions: 140 mM NaCl, 3.8 mM KCl, 1 mM EGTA, 1 mM MgCl2, 10 mM β-mercaptoethanol, 2 mM benzamidine, 0.4 mM Pefablock, 10 μM leupeptin, 10 μM pepstatin A, 5 μM trypsin inhibitor) and disrupted by ultrasonication. The homogenate was then centrifuged for 10 min at 1000×g and the supernatant was stored at −80° C. until subsequent use (see below). The protein content was determined by the Bradford method (BioRad, Munich) using BSA (Bovine serum albumin) as the standard.
PDE4B1 activities were measured in a 96-well platform using SPA (scintillation proximity assay) yttrium silicate beads (RPNQ1050 from GE Healthcare). In a first step the PDE activity operated hydrolysis of either [^3H] cAMP (substrate) into […]. In a second step substrate and product were distinguished following addition of SPA yttrium silicate beads. […] Close proximity of bound [^3H] […] The test volume was 100 μl and finally contained 20 mM Tris buffer (pH 7.4), 0.1 mg/ml of BSA, 5 mM Mg^2+, 0.5 μM cAMP (including about 50,000 cpm of [3H]cAMP) as substrate, 1 μl of the respective substance dilution in DMSO and sufficient recombinant PDE (1000×g supernatant, see above) to ensure that 10-20% of the cAMP was converted under the said experimental conditions. […] After a preincubation of 5 min at 37° C., the reaction was commenced by adding the substrate (cAMP) and the assays were incubated for a further 15 min. Reactions were terminated by adding SPA beads (50 μl). In agreement with the manufacturer's instructions, the SPA beads had previously been resuspended in water, but were then diluted 1:3 (v/v) in water. This diluted solution further contained 3 mM IBMX (isobutylmethylxanthine) to ensure a complete block of PDE activity. Once the beads were sedimented (>30 min), the MTP's (micro titerplate) were analyzed in commercially available […]. The corresponding IC50 values of the compounds for inhibition of PDE4B1 activity were determined from the concentration-effect curves by means of non-linear regression.
(§1) The numbers of the compounds correspond to the numbers of the examples.

[2] = target: T2, human PDE5 (Homo sapiens, UniProt O76074); test: Inhibition of PDE5 activity (platelet lysate, SPA assay); assay type: biochemical; details: 0.5 μM cGMP, read-out: PDE5 Inhibitory values measured as -logIC50 (converted)
T2 construct: from tissue; host or cells: human platelets from fresh donor blood (platelet lysate)
Protocol: Method for Measuring Inhibition of PDE5 Activity
As a source for human PDE5, platelets were used. For that purpose, 150 ml fresh blood from human donors anticoagulated with citrate [final concentration 0.3% (w/v)] was centrifuged at 200 g for 10 min to obtain the so-called platelet-rich-plasma (PRP) as a supernatant. […] After centrifugation (1,400 g, 10 min) the cell pellet was resuspended in 3 ml homogenization buffer (NaCl 140 mM, KCl 3.8 mM, EGTA (ethylene glycol tetraacetic acid) 1 mM, MgCl2 1 mM, Tris-HCl 20 mM, beta-mercaptoethanol 1 mM, pH 8.2) plus protease-inhibitor mix resulting in final concentrations of 0.5 mM Pefablock (Roche), 10 μM Leupeptin, 5 μM Trypsine inhibitor, 2 mM Benzamidin and 10 μM Pepstatin A. The suspension was sonicated and thereafter centrifuged for 15 min at 10,000 g. The resulting supernatant (platelet lysate) was used for enzymatic assays.
PDE5 activities were measured in a 96-well platform using SPA (scintillation proximity assay) yttrium silicate beads (RPNQ1050 from GE Healthcare). In a first step the PDE activity operated hydrolysis of either [^3H] cGMP (substrate) into [^3H] 5′GMP. In a second step substrate and product were distinguished following addition of SPA yttrium silicate beads. Indeed, in the presence of zinc sulphate the linear [^3H] […] Close proximity of bound [^3H] […] The test volume was 100 μl and contained 20 mM Tris buffer (pH 7.4), 0.1 mg of BSA (bovine serum albumin)/ml, 5 mM Mg^2+, 1 μM motapizone (PDE3 Inhibitor), 10 nM PDE2 inhibitor 2-(3,4-dimethoxybenzyl)-7-[(1R,2R)-2-hydroxy-1-(2-phenylethyl)propyl]-5-methylimidazo[5,1-f][1,2,4]triazin-4(3H)-one, 0.5 μM cGMP (cyclic guanosine monophosphate) (including about 50,000 cpm of [3H]cGMP as a tracer) (substrate), 1 μl of the respective compound dilution in dimethylsulfoxide (DMSO) and sufficient PDE5-containing platelet lysat (10,000×g supernatant, see above) to ensure that 10-20% of the cGMP was converted under the said experimental conditions. […] After a preincubation of 5 min at 37° C., the reaction was commenced by adding the substrate (cGMP) and the assay was incubated for a further 15 min. The reaction was terminated by adding SPA beads (50 μl). In agreement with the manufacturer's instructions, the SPA beads had previously been resuspended in water, but were then diluted 1:3 (v/v) in water. This diluted solution also contained 3 mM 8-methoxymethyl-3-isobutyl-1-methylxanthine (IBMX) to ensure a complete block of PDE activity. Once the beads were sedimented (>30 min), the MTP's were analyzed in commercially available luminescence detection devices. The corresponding IC50 values of the compounds for inhibition of PDE activity were determined from the concentration-effect curves by means of non-linear regression.
as §1

T1 sequence (Q07343 whole entry): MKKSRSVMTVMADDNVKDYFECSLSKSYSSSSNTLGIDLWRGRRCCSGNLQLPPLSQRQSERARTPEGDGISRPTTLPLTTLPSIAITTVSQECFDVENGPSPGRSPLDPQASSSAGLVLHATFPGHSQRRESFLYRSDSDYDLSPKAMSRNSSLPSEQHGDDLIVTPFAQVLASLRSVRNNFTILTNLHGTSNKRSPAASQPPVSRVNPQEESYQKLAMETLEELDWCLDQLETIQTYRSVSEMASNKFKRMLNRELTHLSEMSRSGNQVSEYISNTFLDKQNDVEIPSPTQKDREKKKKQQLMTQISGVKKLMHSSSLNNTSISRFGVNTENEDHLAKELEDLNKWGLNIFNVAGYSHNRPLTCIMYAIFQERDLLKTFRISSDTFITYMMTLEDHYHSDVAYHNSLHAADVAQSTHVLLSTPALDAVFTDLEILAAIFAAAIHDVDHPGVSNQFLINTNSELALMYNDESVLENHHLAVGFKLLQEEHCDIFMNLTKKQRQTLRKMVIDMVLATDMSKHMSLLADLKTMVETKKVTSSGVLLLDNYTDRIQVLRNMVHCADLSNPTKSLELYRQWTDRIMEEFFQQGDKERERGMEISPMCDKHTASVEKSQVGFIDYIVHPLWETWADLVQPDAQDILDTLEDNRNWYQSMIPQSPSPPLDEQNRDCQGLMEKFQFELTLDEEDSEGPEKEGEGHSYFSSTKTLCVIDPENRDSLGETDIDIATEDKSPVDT

| Compound | IC50 [1] | IC50 [2] |
| --- | --- | --- |
| CCOc1ccc(C[C@@H](NC(=O)c2c(C)[nH]c3c(-c4c(OCC5CC5)ccc5c4OCO5)ncnc23)C(=O)N2CCC(N3N=C(c4ccc(OC)c(OC)c4)[C@H]4CCCC[C@H]4C3=O)CC2)cc1 [Example 10, 4-[5-(cyclopropylmethoxy)-1,3-benzodioxol-4-yl]-N-[(2R)-1-{4-[(4aS,8aR)-4-(3,4-dimethoxyphenyl)-1-oxo-4a,5,6,7,8,8a-hexahydrophthalazin-2(1H)-yl]piperidin-1-yl}-3-(4-ethoxyphenyl)-1-oxopropan-2-yl]-6-methyl-5H-pyrrolo[3,2-d]pyrimidine-7-carboxamide] | < 1 nM | < 1 nM |
| COc1ccc(C2=NN(C3CCN(C(=O)[C@@H](Cc4ccc(N5CCC5=O)cc4)NC(=O)c4c[nH]c5c(-c6c(OCC7CC7)ccc7c6OCO7)ncnc45)CC3)C(=O)[C@@H]3CCCC[C@H]23)cc1OC [Example 112, 4-[5-(cyclopropylmethoxy)-1,3-benzodioxol-4-yl]-N-{(2R)-1-{4-[(4aS,8aR)-4-(3,4-dimethoxyphenyl)-1-oxo-4a,5,6,7,8,8a-hexahydrophthalazin-2(1H)-yl]piperidin-1-yl}-1-oxo-3-[4-(2-oxoazetidin-1-yl)phenyl]propan-2-yl}-5H-pyrrolo[3,2-d]pyrimidine-7-carboxamide] | < 1 nM | < 1 nM |
| COc1ccc(C2=NN(C3CCN(C(=O)[C@@H](Cc4ccc(N5CCCC5=O)cc4)NC(=O)c4c[nH]c5c(-c6c(OCC7CC7)ccc7c6OCO7)ncnc45)CC3)C(=O)[C@@H]3CCCC[C@H]23)cc1OC [Example 113, 4-[5-(cyclopropylmethoxy)-1,3-benzodioxol-4-yl]-N-{(2R)-1-{4-[(4aS,8aR)-4-(3,4-dimethoxyphenyl)-1-oxo-4a,5,6,7,8,8a-hexahydrophthalazin-2(1H)-yl]piperidin-1-yl}-1-oxo-3-[4-(2-oxopyrrolidin-1-yl)phenyl]propan-2-yl}-5H-pyrrolo[3,2-d]pyrimidine-7-carboxamide] | < 1 nM | < 1 nM |
| COc1ccc(C2=NN(C3CCN(C(=O)[C@H](NC(=O)c4c(C)[nH]c5c(-c6c(OCC7CC7)ccc7c6OCO7)ncnc45)[C@H](C)c4ccccc4)CC3)C(=O)[C@@H]3CCCC[C@H]23)cc1OC [Example 51, 4-[5-(cyclopropylmethoxy)-1,3-benzodioxol-4-yl]-N-[(2R,3R)-1-{4-[(4aS,8aR)-4-(3,4-dimethoxyphenyl)-1-oxo-4a,5,6,7,8,8a-hexahydrophthalazin-2(1H)-yl]piperidin-1-yl}-1-oxo-3-phenylbutan-2-yl]-6-methyl-5H-pyrrolo[3,2-d]pyrimidine-7-carboxamide] | < 1 nM | 1 to 10 nM |

Other lines, results leading:

| IC50 [1] | IC50 [2] | Compound |
| --- | --- | --- |
| 1 to 10 nM | < 1 nM | COc1ccc(C2=NN(C3CCN(C(=O)[C@@H](Cc4ccccc4)NC(=O)c4c[nH]c5c(-c6c(OCC7CC7)ccc7c6OCO7)ncnc45)CC3)C(=O)[C@@H]3CCCC[C@H]23)cc1OC [Example 31, 4-[5-(cyclopropylmethoxy)-1,3-benzodioxol-4-yl]-N-[(2R)-1-{4-[(4aS,8aR)-4-(3,4-dimethoxyphenyl)-1-oxo-4a,5,6,7,8,8a-hexahydrophthalazin-2(1H)-yl]piperidin-1-yl}-1-oxo-3-phenylpropan-2-yl]-5H-pyrrolo[3,2-d]pyrimidine-7-carboxamide] |
| < 1 nM | < 1 nM | COc1ccc(C2=NN(C3CCN(C(=O)[C@H](Cc4ccncc4)NC(=O)c4c[nH]c5c(-c6c(OCC7CC7)ccc7c6OCO7)ncnc45)CC3)C(=O)[C@@H]3CCCC[C@H]23)cc1OC [Example 41, 4-[5-(cyclopropylmethoxy)-1,3-benzodioxol-4-yl]-N-[(2S)-1-{4-[(4aS,8aR)-4-(3,4-dimethoxyphenyl)-1-oxo-4a,5,6,7,8,8a-hexahydrophthalazin-2(1H)-yl]piperidin-1-yl}-1-oxo-3-(pyridin-4-yl)propan-2-yl]-5H-pyrrolo[3,2-d]pyrimidine-7-carboxamide] |
| < 1 nM | 1 to 10 nM | COc1ccc(C2=NN(C3CCN(C(=O)CNC(=O)c4c[nH]c5c(-c6c(OCC7CC7)ccc7c6OCO7)ncnc45)CC3)C(=O)[C@@H]3CCCC[C@H]23)cc1OC [Example 59, 4-[5-(cyclopropylmethoxy)-1,3-benzodioxol-4-yl]-N-(2-{4-[(4aS,8aR)-4-(3,4-dimethoxyphenyl)-1-oxo-4a,5,6,7,8,8a-hexahydrophthalazin-2(1H)-yl]piperidin-1-yl}-2-oxoethyl)-5H-pyrrolo[3,2-d]pyrimidine-7-carboxamide] |
| 1 to 10 nM | 1 to 10 nM | COc1ccc(C2=NN(C3CCN(C(=O)[C@@H](Cc4ccc(C(C)(C)C)cc4)NC(=O)c4c[nH]c5c(-c6c(OCC7CC7)ccc7c6OCO7)ncnc45)CC3)C(=O)[C@@H]3CCCC[C@H]23)cc1OC [Example 6, N-[(2R)-3-(4-tert-butylphenyl)-1-{4-[(4aS,8aR)-4-(3,4-dimethoxyphenyl)-1-oxo-4a,5,6,7,8,8a-hexahydrophthalazin-2(1H)-yl]piperidin-1-yl}-1-oxopropan-2-yl]-4-[5-(cyclopropylmethoxy)-1,3-benzodioxol-4-yl]-5H-pyrrolo[3,2-d]pyrimidine-7-carboxamide] |
| 1 to 10 nM | 1 to 10 nM | COc1ccc(C2=NN(C3CCN(C(=O)[C@@H](CCC(=O)OCc4ccccc4)NC(=O)c4c[nH]c5c(-c6c(OCC7CC7)ccc7c6OCO7)ncnc45)CC3)C(=O)[C@@H]3CCCC[C@H]23)cc1OC [Example 100, Benzyl (4R)-4-[({4-[5-(cyclopropylmethoxy)-1,3-benzodioxol-4-yl]-5H-pyrrolo[3,2-d]pyrimidin-7-yl}carbonyl)amino]-5-{4-[(4aS,8aR)-4-(3,4-dimethoxyphenyl)-1-oxo-4a,5,6,7,8,8a-hexahydrophthalazin-2(1H)-yl]piperidin-1-yl}-5-oxopentanoate] |
